Test results as given in patent US9932309B2, “2-oxo-3,4-dihydropyridine-5-carboxylates and their use” (UNIVERSITE DE LILLE 2 DROIT ET SANTE, priority 2014, dated 2018).

What was measured:
hTGR5 = molecular target: T1, hTGR5 (Homo sapiens, UniProt Q8TDU6); test: TGR5/CRE Luciferase Assay (hTGR5); type: cell-based; conditions: for EC50: HEK 293 cells co-transfected with pCMV tag4b-TGR5h and pCRE TA-Luciferase, overnight incubation; for hTGR5 % trans: percentage of the 10 μM LCA value, HEK 293 cells transfected with hTGR5
T1 construct: expressed in transfected cells; host or cells: HEK293 cells, transiently co-transfected with the pCRE TA-Luciferase reporter
T1 sequence (Q8TDU6 1-330): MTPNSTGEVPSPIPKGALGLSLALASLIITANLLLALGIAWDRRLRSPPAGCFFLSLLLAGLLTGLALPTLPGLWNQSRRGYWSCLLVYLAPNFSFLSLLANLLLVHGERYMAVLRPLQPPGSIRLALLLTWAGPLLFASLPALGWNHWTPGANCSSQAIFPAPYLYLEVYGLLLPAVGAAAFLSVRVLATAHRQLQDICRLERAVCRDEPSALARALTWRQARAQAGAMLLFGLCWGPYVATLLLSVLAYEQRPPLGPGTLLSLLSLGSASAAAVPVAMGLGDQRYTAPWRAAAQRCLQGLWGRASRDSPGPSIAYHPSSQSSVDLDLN
Procedure, shortened: (§1)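 cAMP-dependent luciferase luminescence was measured after overnight compound exposure (duplicate concentration series) and fitted to a four-parameter logistic equation. Cells: HEK293 transiently co-expressing hTGR5 or mTGR5 with a CRE reporter; lithocholic acid at 10 μM was the reference agonist.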

mTGR5 = molecular target: T2, mTGR5 (Mus musculus, UniProt Q80SS6); test: TGR5/CRE Luciferase Assay (mTGR5); type: cell-based; conditions: for EC50: HEK 293 cells co-transfected with pCMV AC6-TGR5m and pCRE TA-Luciferase, overnight incubation; for mTGR5 % trans: percentage of the 10 μM LCA value, HEK 293 cells transfected with mTGR5
T2 construct: expressed in transfected cells; host or cells: HEK293 cells, transiently co-transfected with the pCRE TA-Luciferase reporter
T2 sequence (Q80SS6 1-329): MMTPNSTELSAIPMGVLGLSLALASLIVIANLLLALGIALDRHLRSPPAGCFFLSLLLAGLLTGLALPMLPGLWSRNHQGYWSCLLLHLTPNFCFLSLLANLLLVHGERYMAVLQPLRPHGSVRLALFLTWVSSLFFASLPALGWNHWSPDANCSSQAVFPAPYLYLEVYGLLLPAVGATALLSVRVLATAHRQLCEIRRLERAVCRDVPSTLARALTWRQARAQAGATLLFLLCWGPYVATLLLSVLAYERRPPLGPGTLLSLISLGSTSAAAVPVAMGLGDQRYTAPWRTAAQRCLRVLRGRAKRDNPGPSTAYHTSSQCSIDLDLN
Procedure, shortened: as §1

| EC50 (hTGR5) | hTGR5 % trans (hTGR5) | EC50 (mTGR5) | mTGR5 % trans (mTGR5) | Structure (SMILES) |
| --- | --- | --- | --- | --- |
| 200 nM | 71% | 200 nM | 85% | COCCN1C(=O)CC(c2ccc(Cl)cc2)C(C(=O)OCc2ccc(OC)cc2)=C1C (stereo not shown) [Example 104, (4-methoxyphenyl)methyl 4-(4-chlorophenyl)-1-(2-methoxyethyl)-6-methyl-2-oxo-3,4-dihydropyridine-5-carboxylate] |
| 2300 nM | 50% | 1600 nM | 42% | COCCN1C(=O)CC(c2ccc(Cl)cc2)C(C(=O)OCCc2ccccc2)=C1C (stereo not shown) [Example 110, 2-phenylethyl 4-(4-chlorophenyl)-1-(2-methoxyethyl)-6-methyl-2-oxo-3,4-dihydropyridine-5-carboxylate] |
| 5200 nM | 20% | 3200 nM | 46% | COCCN1C(=O)CC(c2ccc(Cl)cc2)C(C(=O)OCC(=O)c2ccccc2)=C1C (stereo not shown) [Example 112, Phenacyl 4-(4-chlorophenyl)-1-(2-methoxyethyl)-6-methyl-2-oxo-3,4-dihydropyridine-5-carboxylate] |
| 100 nM | 85% | 100 nM | 83% | COCCOc1ccc(COC(=O)C2=C(C)N(CCOC)C(=O)CC2c2ccc(Cl)cc2)cc1 (stereo not shown) [Example 119, [4-(2-methoxyethoxy)phenyl]methyl 4-(4-chlorophenyl)-1-(2-methoxyethyl)-6-methyl-2-oxo-3,4-dihydropyridine-5-carboxylate] |
| 1100 nM | 51% | 1200 nM | 49% | CCCC1CC(=O)N(CCOC)C(C)=C1C(=O)OCc1ccccc1OC (stereo not shown) [Example 121, (2-methoxyphenyl)methyl 1-(2-methoxyethyl)-6-methyl-2-oxo-4-propyl-3,4-dihydropyridine-5-carboxylate] |
| 200 nM | 86% | 200 nM | 100% | COCCN1C(=O)CC(c2ccc(C#N)cc2)C(C(=O)OCc2ccccc2OC)=C1C (stereo not shown) [Example 125, (2-methoxyphenyl)methyl 4-(4-cyanophenyl)-1-(2-methoxyethyl)-6-methyl-2-oxo-3,4-dihydropyridine-5-carboxylate] |
| 100 nM | 89% | 100 nM | 109% | COCCN1C(=O)CC(c2ccc(Cl)c(Cl)c2)C(C(=O)OCc2ccccc2OC)=C1C (stereo not shown) [Example 127, (2-methoxyphenyl)methyl 4-(3,4-dichlorophenyl)-1-(2-methoxyethyl)-6-methyl-2-oxo-3,4-dihydropyridine-5-carboxylate] |
| 400 nM | 89% | 900 nM | 81% | COCCN1C(=O)CC(c2ccc(Cl)cc2Cl)C(C(=O)OCc2ccccc2OC)=C1C (stereo not shown) [Example 129, (2-methoxyphenyl)methyl 4-(2,4-dichlorophenyl)-1-(2-methoxyethyl)-6-methyl-2-oxo-3,4-dihydropyridine-5-carboxylate] |
| 8600 nM | 72% | 4900 nM | 83% | COCCN1C(=O)CC(c2ccncc2)C(C(=O)OCc2ccccc2OC)=C1C (stereo not shown) [Example 133, (2-methoxyphenyl)methyl 1-(2-methoxyethyl)-6-methyl-2-oxo-4-(4-pyridyl)-3,4-dihydropyridine-5-carboxylate] |
| 320 nM | 92% | – | 86% | COc1ccccc1COC(=O)C1=C(C)N(C[C@@H]2CCCO2)C(=O)C[C@@H]1c1ccc(Cl)nc1 [Example 162, (2-M ethoxyphenyl)-methyl-(4R)-4-(6-chloro-3-pyridyl)-6-methyl-2-oxo-1-[[(2S)-tetrahydrofuran-2-yl]methyl]-3,4-dihydropyridine-5-carboxylate] |
| 17 nM | 105% | – | 102% | COc1ccccc1COC(=O)C1=C(C)N(C[C@@H]2CCCO2)C(=O)C[C@H]1c1ccc(Cl)nc1 [Example 163, (2-Methoxyphenyl)methyl-(4S)-4-(6-chloro-3-pyridyl)-6-methyl-2-oxo-1-[[(2S)-tetra hydrofuran-2-yl]methyl]-3,4-dihydropyridine-5-carboxylate] |

Continued, molecule first:

| Structure (SMILES) | EC50 (hTGR5) | hTGR5 % trans (hTGR5) | EC50 (mTGR5) | mTGR5 % trans (mTGR5) |
| --- | --- | --- | --- | --- |
| COCCN1C(=O)CC(c2ccc(Cl)cc2)C(C(=O)OCc2ccc3ccccc3c2)=C1C (stereo not shown) [Example 106, 2-naphthylmethyl 4-(4-chlorophenyl)-1-(2-methoxyethyl)-6-methyl-2-oxo-3,4-dihydropyridine-5-carboxylate] | 400 nM | – | 200 nM | – |
| COCCN1C(=O)CC(c2ccc(Cl)cc2)C(C(=O)OCc2ccncc2)=C1C (stereo not shown) [Example 107, 4-pyridylmethyl 4-(4-chlorophenyl)-1-(2-methoxyethyl)-6-methyl-2-oxo-3,4-dihydropyridine-5-carboxylate] | 1200 nM | 71% | 600 nM | 83% |
| COCCN1C(=O)CC(c2ccc(Cl)cc2)C(C(=O)OCc2ccc(-c3ccccc3)cc2)=C1C (stereo not shown) [Example 108, (4-phenylphenyl)methyl 4-(4-chlorophenyl)-1-(2-methoxyethyl)-6-methyl-2-oxo-3,4-dihydropyridine-5-carboxylate] | 500 nM | – | 600 nM | – |
| COCCN1C(=O)CC(c2ccc(Cl)cc2)C(C(=O)OCc2ccc(OCCCN(C)C)cc2)=C1C (stereo not shown) [Example 116, [4-[3-(dimethylamino)propoxy]phenyl]methyl 4-(4-chlorophenyl)-1-(2-methoxyethyl)-6-methyl-2-oxo-3,4-dihydropyridine-5-carboxylate] | 1400 nM | 76% | 1600 nM | 82% |
| COCCN1C(=O)CC(c2ccc(Cl)cc2)C(C(=O)OCc2ccc(OCCC[N+](C)(C)C)cc2)=C1C.[I-] (stereo not shown) [Example 117, 3-[4-[[4-(4-chlorophenyl)-1-(2-methoxyethyl)-6-methyl-2-oxo-3,4-dihydropyridine-5-carbonyl]oxymethyl]phenoxy]propyl-trimethyl-ammonium; iodide] | 1600 nM | 74% | 4200 nM | 77% |
| COCCN1C(=O)CC(c2ccc(-c3ccccc3)cc2)C(C(=O)OCc2ccccc2)=C1C (stereo not shown) [Example 123, Benzyl 1-(2-methoxyethyl)-6-methyl-2-oxo-4-(4-phenylphenyl)-3,4-dihydropyridine-5-carboxylate] | 1400 nM | 17% | 2800 nM | 10% |
| COc1ccccc1[C@H](C)OC(=O)C1=C(C)N(C[C@H]2CCCO2)C(=O)C[C@H]1c1ccc(Cl)cc1 [Example 138, 1-(2-methoxyphenyl)ethyl (4S)-4-(4-chlorophenyl)-6-methyl-2-oxo-1-[[(2R)-tetrahydrofuran-2-yl]methyl]-3,4-dihydropyridine-5-carboxylate] | 380 nM | 70% | 1110 nM | 36% |
| CC1=C(C(=O)OCc2ccc(OCCS(=O)(=O)O)cc2)[C@H](c2ccc(Cl)cc2)CC(=O)N1C[C@H]1CCCO1.N [Example 144, Ammonium 2-[4-[[(4S)-4-(4-chlorophenyl)-6-methyl-2-oxo-1-[[(2R)-tetrahydrofuran-2-yl]methyl]-3,4-dihydropyridine-5-carbonyl]oxymethyl]phenoxy]ethanesulfonate] | 60 nM | 95% | 100 nM | 158% |
